Measured values: patent US8481495B2 (TetraLogic Pharmaceuticals Corporation, priority 2009, dated 2013)

Tests used:
[1] = molecular target: T1, cIAP-1 BIR-3 (Homo sapiens, UniProt Q13490); test: Fluorescence polarization binding to cIAP-1 BIR-3 with labeled peptide AbuRPF-K(5-Fam)-NH2; conditions: cIAP-1 BIR-3, 40 nM BIR3, 5 nM labeled peptide, 15 min RT, pH 7.5; read-out: cIAP1, nM (binding affinity KD, as range)
T1 construct: 40 nM of the respective IAP BIR3
How it was run: (§1)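 Competitive FP with 5 nM 5-Fam-labelled Smac-mimetic peptide and 40 nM IAP BIR3, 15 min at RT in 0.1 M potassium phosphate pH 7.5 with bovine γ-globulin. Polarization (mP) read at 485/520 nm; KD reported as ranges A–D (A <0.1 μM to D >10 μM).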

[2] = molecular target: T2, XIAP BIR-3 (Homo sapiens, UniProt P98170); test: Fluorescence polarization binding to XIAP BIR-3 with labeled peptide AbuRPF-K(5-Fam)-NH2; conditions: XIAP BIR-3, 40 nM BIR3, 5 nM labeled peptide, 15 min RT, pH 7.5; read-out: XIAP, nM (binding affinity KD, as range)
T2 construct: 40 nM of the respective IAP BIR3
T2 sequence (P98170 241-356 limits assumed): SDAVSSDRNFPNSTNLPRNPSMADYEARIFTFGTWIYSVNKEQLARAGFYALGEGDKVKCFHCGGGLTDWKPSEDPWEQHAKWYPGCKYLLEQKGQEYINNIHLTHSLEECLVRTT
How it was run: as §1

[3] = tested on: SK-OV-3 cells; test: MTT cell growth inhibition assay in ovarian cancer cell line SK-OV-3; type: cell-based; conditions: Homo sapiens, 72 hrs incubation, read-out: SKOV3, nM (CC50, concentration giving 50% cell survival, as range)
How it was run: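 SK-OV-3 cells (5,000 per well, McCoy's medium with 10% FBS) exposed to compounds at 0.003-10 μM for 72 h at 37°C, followed by MTT for 3 h, DMSO solubilisation and OD at 535 nm. CC50 is the concentration giving 50% survival relative to control wells, reported in ranges (A <0.1 μM to D >10 μM).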

T1 sequence (Q13490 253-363 limits assumed): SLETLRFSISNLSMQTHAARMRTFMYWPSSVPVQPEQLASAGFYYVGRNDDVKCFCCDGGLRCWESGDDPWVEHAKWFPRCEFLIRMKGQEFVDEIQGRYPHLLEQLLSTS

Compound | Kd [1] | Kd [2] | CC50 [3]
CN[C@@H](C)C(=O)N[C@H](C(=O)N1CC[C@@H]2[C@H]1[C@@H](C(=O)N[C@@H]1CCCc3ccccc31)CN2C(=O)OC)C1CCCCC1 [Example 39, 4-[2-Cyclohexyl-2-(2-methylamino-propionylamino)-acetyl]-3-(1,2,3,4-tetrahydro-naphthalen-1-ylcarbamoyl)-hexahydro-pyrrolo[3,2-b]pyrrole-1-carboxylic acid methyl ester] | < 100 nM | < 100 nM | < 100 nM
CNC(=O)N1C[C@H](C(=O)Nc2cccc3ccccc23)[C@@H]2[C@H]1CCN2C(=O)[C@@H](NC(=O)[C@H](C)NC)C(C)(C)C [Example 42, 4-[3,3-Dimethyl-2-(2-methylamino-propionylamino)-butyryl]-hexahydro-pyrrolo[3,2-b]pyrrole-1,3-dicarboxylic acid 1-methylamide 3-naphthalen-1-ylamide] | < 100 nM | < 100 nM | < 100 nM
CN[C@@H](C)C(=O)N[C@H](C(=O)N1CC[C@@H]2[C@H]1[C@@H](C(=O)Nc1cc(C)nc3ccccc13)CN2S(C)(=O)=O)C(C)(C)C [Example 48, 4-[3,3-Dimethyl-2-(2-methylamino-propionylamino)-butyryl]-1-methanesulfonyl-octahydro-pyrrolo[3,2-b]pyrrole-3-carboxylic acid (2-methyl-quinolin-4-yl)-amide] | < 100 nM | < 100 nM | < 100 nM

Second part, led by results:

Kd [1] | Kd [2] | Compound | CC50 [3]
< 100 nM | < 100 nM | CN[C@@H](C)C(=O)N[C@H](C(=O)N1CC[C@@H]2[C@H]1[C@@H](C(=O)Nc1cccc3ccccc13)CN2S(C)(=O)=O)C1CCCCC1 [Example 17, 4-[2-Cyclohexyl-2-(2-methylamino-propionylamino)-acetyl]-1-methanesulfonyl-octahydro-pyrrolo[3,2-b]pyrrole-3-carboxylic acid naphthalen-1-ylamide] | < 100 nM
< 100 nM | 100 to 1000 nM | CN[C@@H](C)C(=O)N[C@H](C(=O)N1CC[C@@H]2[C@H]1[C@@H](C(=O)Nc1ccccc1)CN2S(C)(=O)=O)C1CCCCC1 [Example 8, 4-[2-Cyclohexyl-2-(2-methylamino-propionylamino)-acetyl]-1-methanesulfonyl-octahydro-pyrrolo[3,2-b]pyrrole-3-carboxylic acid phenylamide] | < 100 nM
< 100 nM | < 100 nM | CN[C@@H](C)C(=O)N[C@H](C(=O)N1CC[C@@H]2[C@H]1[C@@H](C(=O)NC(c1ccccc1)c1ccccc1)CN2S(C)(=O)=O)C1CCCCC1 [Example 6, 4-[2-Cyclohexyl-2-(2-methylamino-propionylamino)-acetyl]-1-methanesulfonyl-octahydro-pyrrolo[3,2-b]pyrrole-3-carboxylic acid benzhydryl-amide] | 100 to 1000 nM
